Measurements taken from publication PMC10098121, “Amphipathic barbiturates as marine product mimics with cytolytic and immunogenic effects on head and neck squamous cell carcinoma cell lines” (Frontiers in Pharmacology, 2023).

Experiments:
human red blood cells = test: Hemolysis assay; format: cell-based; settings: for EC50: Homo sapiens, Erythrocyte, 1 h, 37°C, highest concentration tested 500 μM, average of three experiments, read-out: EC50 hemolytic activity against human red blood cells
Description: The hemolytic effect of the MPMs was determined using a hemolysis assay as previously described ([Paulsen et al., 2021]). Briefly, hemolysis was determined using a heparinized fraction (10 IU/mL) of freshly drawn blood. The blood collected in ethylenediaminetetraacetic acid-containing test tubes (Vacutest, KIMA, Arzergrande, Italy) was used for the determination of the hematocrit (hct). The heparinized blood was washed 3 × with pre-warmed phosphate-buffered saline (PBS) and adjusted to a final hct of 4%. MPMs in DMSO (50 mM) were added to a 96-well polypropylene V-bottom plate (NUNC, Fisher Scientific, Oslo, Norway) and serially diluted. The test concentration range was 4–500 μM with DMSO contents ≤1%. A solution of 1% triton X-100 was used as a positive control for 100% hemolysis. As a negative control, a solution of 1% DMSO in PBS was included. Red blood cells (1% v/v final concentration) were added to the well plate and incubated at 37°C and 800 rpm for 1 h. After centrifugation (5 min, 3000 g), 100 μL from each well was transferred to a 96-well flat-bottomed microtiter plate, and absorbance was measured at 545 nm with a microplate reader (VersaMaxTM, Molecular Devices, Sunnyvale, CA, United States). The percentage of hemolysis was calculated as the ratio of the absorbance in the MPM treated and surfactant-treated samples, corrected for the PBS background. Three independent experiments were performed, and EC50 values are presented as averages.

[1] = system: Escherichia coli ATCC 25922; test: Bacterial minimum inhibitory concentration (broth microdilution); format: cell-based; settings: ATCC25922; Escherichia coli ATCC 25922, 48 h, 35 °C, di-TFA salts
Description: (§1) Method for determination of bacterial minimum inhibitory concentration (MIC) Stock solutions of the water-soluble compounds were prepared by dissolving them in ultrapure water (Milli-Q H2O, Millipore, MA, USA). The less water-soluble compounds were first dissolved in 25 - 50 µL 100% DMSO before further dilution with ultrapure water. The DMSO concentration was always less than 1% in the working concentration of each compound. A modified broth microdilution susceptibility test based on the CLSI M07-A9 protocol, [2] was used to determine minimal inhibitory concentrations (MIC). Briefly, the test compounds were two-fold diluted with ultrapure water in polystyrene 96-well flat-bottom microplates (NUNC, Roskilde, Denmark). The bacterial inoculum was diluted to 2.5 - 3 x 10^4 cells/mL in Mueller-Hinton broth (MHB, Difco Laboratories, USA) and added to the different diluted compounds in a ratio of 1:1. Positive control (ciprofloxacin, Sigma-Aldrich, USA), negative control (bacteria + water), and media control (media + water) were included in each experiment. The microplates were incubated for 48 h at 35 °C in an EnVision microplate reader (PerkinElmer, Waltham, MA, USA). The lowest concentration of compounds that caused no bacterial growth, as determined by optical density (OD600) measurements, was defined as the MIC value. All compounds were tested in 3 technical replicates.
(§2) Supplementary Video S1. HSC-3 cells were seeded at 100% confluence and a standard scratch wound migration assay was performed. The cells were imaged every 2 hours for 24 hours. The video

[2] = system: Staphylococcus aureus ATCC 9144; test: as above; format: cell-based; settings: ATCC9144; Staphylococcus aureus ATCC 9144, 48 h, 35 °C, di-TFA salts
Description: as §1, §2

[3] = system: Pseudomonas aeruginosa ATCC 27853; test: as above; format: cell-based; settings: ATCC27853; Pseudomonas aeruginosa ATCC 27853, 48 h, 35 °C, di-TFA salts
Description: as §1, §2

Bacillus subtilis 168 = test: as above; format: cell-based; settings: Bacillus subtilis 168, 48 h, 35 °C, di-TFA salts
Description: as §1, §2

UT-SCC-42A = test: High throughput drug screening (CellTiter-Glo, DSS); format: cell-based, human; settings: for drug sensitivity score (DSS): 72 h, 10-100,000 nM, myogel, non-irradiated; for delta DSS (ΔDSS): DSS irradiated (2 Gy) minus DSS non-irradiated, >5 synergy, <–5 antagonism
Description: (§3) The MPMs were screened against a panel of […] different cell lines (HSC-3, UT-SCC-8, UT-SCC-24A, UT-SCC-24B, UT-SCC-42A, UT-SCC-42B and NOF) at the High Throughput Biomedicine Unit (HTB) at the Institute for Molecular Medicine Finland (FIMM). On day 1, black-walled 384-well plates were coated with 5 µl diluted myogel (0.5 mg/ml) per well using an automated reagent dispenser (MultiFlo FX, BioTek, Winooski, VT, United States). On day 2, 500 cells per well were seeded in 20 µl of complete media using the MultiFlo FX (BioTek), and the cells were left to adhere overnight. On day 3, the MPMs, cisplatin, DMSO and Benzethonium chloride were added to the cells using an automatic liquid handler (Echo 550, Labcyte Inc., San Jose, CA, United States). Cisplatin and the MPMs were added to yield five different concentrations in a ten-fold dilution series ranging from 10 to 100,000 nM. Each concentration was tested in triplicate wells. DMSO (0.1%) and benzethonium chloride (100 µM) served as negative and positive control, respectively. Three hours later, some of the plates were irradiated with 2 Gy in a gamma irradiator (OB29/4, STS, Braunschweig, Germany). All plates were taken to the irradiation room to ensure similar handling of the plates. 72 h later, the plates were cooled to room temperature before 25 µl of CellTiter-Glo 2.0 reagent (Promega, Madison, WI, USA) was added to each well using the MultiFlo FX (BioTek). Next, the plates were centrifuged for 5 min at 1,000 rpm before the luminescence signal was measured with the PHERAstar FS HT reader (BMG LABTECH GmbH, Ortenberg, Germany). The raw data was analyzed with the Breeze software (https://breeze.fmm.fi), which normalized the luminescence signal from treated cells against the signal from negative and positive control cells to calculate the percentage of inhibition and generate dose-response curves, which were then used to calculate drug sensitivity scores (DSS). The DSS is a parameter which combines the IC50, the slope of the dose-response curve, and the minimum and maximum responses into a single metric, as previously described ([Yadav et al., 2014]). Quality control was performed by calculation of the Z′-factor, which was >0.7 for all cell lines, indicating high quality of the assay ([Zhang et al., 1999]).

[4] = system: NOF (normal oral fibroblasts); test: as above; format: cell-based, human; settings: for drug sensitivity score (DSS): 72 h, 10-100,000 nM, myogel, non-irradiated; for delta DSS (ΔDSS): DSS irradiated (2 Gy) minus DSS non-irradiated, >5 synergy, <–5 antagonism
Description: as §3

HSC-3 = test: as above; format: cell-based, human; settings: for drug sensitivity score (DSS): HSC-3, 72 h, 10-100,000 nM, myogel, non-irradiated; for delta DSS (ΔDSS): HSC-3, DSS irradiated (2 Gy) minus DSS non-irradiated, >5 synergy, <–5 antagonism
Description: as §3

UT-SCC-24B = test: as above; format: cell-based, human; settings: for drug sensitivity score (DSS): 72 h, 10-100,000 nM, myogel, non-irradiated; for delta DSS (ΔDSS): DSS irradiated (2 Gy) minus DSS non-irradiated, >5 synergy, <–5 antagonism
Description: as §3

UT-SCC-24A = test: as above; format: cell-based, human; settings: for drug sensitivity score (DSS): 72 h, 10-100,000 nM, myogel, non-irradiated; for delta DSS (ΔDSS): DSS irradiated (2 Gy) minus DSS non-irradiated, >5 synergy, <–5 antagonism
Description: as §3

UT-SCC-42B = test: as above; format: cell-based, human; settings: for drug sensitivity score (DSS): 72 h, 10-100,000 nM, myogel, non-irradiated; for delta DSS (ΔDSS): DSS irradiated (2 Gy) minus DSS non-irradiated, >5 synergy, <–5 antagonism
Description: as §3

UT-SCC-106A = test: as above; format: cell-based, human; settings: for drug sensitivity score (DSS): 72 h, 10-100,000 nM, myogel, non-irradiated; for delta DSS (ΔDSS): DSS irradiated (2 Gy) minus DSS non-irradiated, >5 synergy, <–5 antagonism
Description: as §3

UT-SCC-8 = test: as above; format: cell-based, human; settings: for drug sensitivity score (DSS): UT-SCC-8, 72 h, 10-100,000 nM, myogel, non-irradiated; for delta DSS (ΔDSS): UT-SCC-8, DSS irradiated (2 Gy) minus DSS non-irradiated, >5 synergy, <–5 antagonism
Description: as §3

Structure (SMILES)	EC50 (human red blood cells) [µM]	MIC [1] [mg/L]	MIC [2] [mg/L]	MIC [3] [mg/L]	MIC (Bacillus subtilis 168) [mg/L]	drug sensitivity score (DSS) (UT-SCC-42A)	delta DSS (ΔDSS) (UT-SCC-42A)	drug sensitivity score (DSS) [4]	delta DSS (ΔDSS) [4]	drug sensitivity score (DSS) (HSC-3)	delta DSS (ΔDSS) (HSC-3)	drug sensitivity score (DSS) (UT-SCC-24B)	delta DSS (ΔDSS) (UT-SCC-24B)	drug sensitivity score (DSS) (UT-SCC-24A)	delta DSS (ΔDSS) (UT-SCC-24A)	drug sensitivity score (DSS) (UT-SCC-42B)	delta DSS (ΔDSS) (UT-SCC-42B)	drug sensitivity score (DSS) (UT-SCC-106A)	delta DSS (ΔDSS) (UT-SCC-106A)	drug sensitivity score (DSS) (UT-SCC-8)	also measured
NCCCCCN1C(=O)N(CCCCCN)C(=O)C(CCCc2ccccc2)(CCCc2ccccc2)C1=O [MPM-5:0]	313	32	8	32	4	13,5	-0,8	19	-1,2	17,6	0,2	18,2	-0,5	17,4	-1,2	11,5	-0,5	17,9	-1	18,1	hemolytic activity against red blood cells (in words) (human red blood cells; test range 4–500 μM): the second lowest RBC EC50; delta DSS (ΔDSS) (UT-SCC-8): 0,4
NCCCN1C(=O)N(CCCN)C(=O)C(CCCc2ccccc2)(CCCc2ccccc2)C1=O [MPM-3:0]	> 500	64	32	64	16	11,7	-1,1	18,3	-0,6	16,1	0	18	-0,6	14,3	-1,8	10,1	-0,1	17,1	-0,6	16,5	delta DSS (ΔDSS) (UT-SCC-8): -0,6
CN(C)CCN1C(=O)N(CCN(C)C)C(=O)C(CCCc2ccccc2)(CCCc2ccccc2)C1=O [MPM-2:2]	> 500	32	> 64	> 64	32	13,4	0,9	19,2	-1,2	16,8	1,4	17,8	-1,5	18,1	-0,4	12,9	-0,4	18,6	-1,5	17	delta DSS (ΔDSS) (UT-SCC-8): 0,2
CNCCCCN1C(=O)N(CCCCNC)C(=O)C(CCCc2ccccc2)(CCCc2ccccc2)C1=O [MPM-4:1]	> 500	> 64	32	> 64	8	9,9	-0,1	18,5	-0,8	14,8	-0,4	16,4	-0,5	15,5	-1,6	10,2	-1,1	15,8	-0,8	14,5	delta DSS (ΔDSS) (UT-SCC-8): 0,6
